Reference: US11058780B2, “Palpable marker composition” (TECHNICAL UNIVERSITY OF DENMARK, priority 2016, dated 2021)

Assay: Solubility in ethanol and doping of iodo-SAIB into SAIB
Type: physicochemical
Conditions: neat LOIB

solubility in anhydrous EtOH: readily dissolves
SMILES: CC(C)C(=O)OC[C@H]1O[C@@H](O[C@H]2[C@H](OC(=O)C(C)C)[C@@H](OC(=O)C(C)C)C(OC(=O)C(C)C)O[C@@H]2COC(=O)C(C)C)[C@H](OC(=O)C(C)C)[C@@H](OC(=O)C(C)C)[C@H]1OC(=O)C(C)C (stereo partly drawn) [LOIB, α,β Lactose Octaisobutyrate]
